Reference: patent publication US11958821B2, “Phenethylamine compounds salts, polymorphic forms and methods of use thereof” (Terran Biosciences Inc., priority 2021, dated 2024)

Tests used:
Male Sprague-Dawley rats = experiment: Rat elevated zero-maze study with racemic MDE, R-MDE, S-MDE and chlordiazepoxide; details: for Percentage of time spent in the open arms (% TO), significance vs placebo / Percentage of time spent in the open arms (% TO), trend: 2.5-30 mg/kg ip
Experimental: A reduction in the amount of activity on the open areas is considered to reflect an increase in anxiety. The ethologically-based behavior, stretched attend postures (SAP) from closed to open quadrants, is assessed as an index of anxiety. […] Animals
Male Sprague-Dawley 200-250 g (Envigo UK) rats were used. Animals were group-housed (5 per cage; cage size: 40×40×20 cm) in a temperature-controlled environment (22±2° C.), under a 12 h light-dark cycle (lights on: 08:00 hours) for one week prior to testing. Food and water were freely available. Number of animals per group=5.
The elevated 0-maze comprises a black Perspex annular platform (105 cm diameter, 10 cm width) elevated to 65 cm above ground level, divided equally into four quadrants. Two opposite quadrants are enclosed by clear red Perspex walls (27 cm high) on both the inner and outer edges of the platform, while the remaining two opposite quadrants are surrounded only by a Perspex “lip” (1 cm high) which serves as a tactile guide to animals on these open areas.
Subjects were weighed and tail marked before being injected. After a specified pretreatment time, subjects were placed in a closed quadrant and a 5-min test period were recorded on videotape for subsequent analysis. The maze was cleaned with 5% methanol/water solution and dried thoroughly between test sessions. Behavioural measures comprise percentage time spent on the open areas (% TO) and frequency of stretched attend postures (SAP) from closed to open quadrants. Animals are scored as being in the open area when all four paws were in an open quadrant and in the closed area only when all four paws have passed over the open-closed divide.
Thirty min later at T=0, rats were individually placed in a closed arm of the zero-maze and behavior was assessed by a “blind” observer using remote video monitoring over the subsequent 5 min. The animal was then removed and the maze carefully wiped with 5% methanol/water solution before the next test was begun.
Thirty min later at T=0, rats were individually placed in a closed arm of the zero-maze and behavior assessed by a “blind” observer using remote video monitoring over the subsequent 5 min. The animal was then removed and the maze carefully wiped with 5% methanol/water solution before the next test was begun.

[1] = system: participants diagnosed with at least moderate post-traumatic stress disorder (PTSD); experiment: Double-blind, randomized, placebo-controlled clinical trial of MDE-assisted psychotherapy in PTSD; assay type: in vivo, human; details: for Daytime sleepiness (ESS) / Clinician-rated functional impairment score (SDS) / Depression (HAM-D) / Change in CAPS-5 assessment: Study Conclusion; for Clinician-rated functional impairment score (SDS) / Depression (HAM-D) / Change in CAPS-5 assessment: vs placebo; for Change in CAPS-5 assessment: hydrochloride salt with psychotherapy; for Total dosage of drug to achieve significant mean reduction in CAPS-5: vs racemic MDE-treated subgroup
Experimental: A multicenter, randomized, double-blind, placebo-controlled trial is conducted to assess the efficacy and safety of MDE-assisted psychotherapy versus psychotherapy with placebo control in participants diagnosed with at least moderate post-traumatic stress disorder (PTSD).
This multicenter, randomized, double-blind, placebo-controlled trial is conducted at various sites in the United States with IRB approval from each study site. A flexible dose of MDE hydrochloride salt or placebo, followed by a supplemental half-dose unless contraindicated by patient's previous response or medical history, is also administered during the Treatment Period with psychotherapy in at least 3 blinded monthly Experimental Sessions. The Supplemental Dose extends the duration of drug effects on the participants during an Experimental Session. MDE test groups are further subdivided into specific groups receiving only racemic MDE hydrochloride salt, S-MDE hydrochloride salt, or R-MDE hydrochloride salt. An optional Risk Evaluation and Mitigation Strategy (REMS) Protocol may be implemented for the racemic MDE, R-MDE, and placebo-groups. The Treatment Period lasts for approximately 12 weeks. During the Treatment Period, each Experimental Session is followed by three Intervening Sessions of non-drug psychotherapy. Each Experimental Session involves an overnight stay. The Primary Outcome measure, the change in Clinician Administered PTSD Scale for DSM-5 (CAPS-5), is determined by a blinded Independent Rater (IR) pool multiple times throughout the study. The study consists of separate periods for each participant. Initially, prospective participants undergo a Screening Period involving an initial eligibility assessment, a medical history intake, informed consent, and enrollment of eligible participants. Next, a Preparation Period is undertaken for enrolled participants involving medication tapering and clinical baseline assessments to confirm each participant meets enrollment criteria. As part of the Preparation Period, a detailed assessment of co-morbidities to PTSD is recorded. Participants may remain on prescribed courses of selective serotonin reuptake inhibitor (SSRI) or serotonin and norepinephrine reuptake inhibitor (SNRI) treatment. Dosages and/or frequency of administration of a prescribed SSRI or SNRI may be adjusted to fit within study parameters. Participants may be required to taper a prescribed course of medication in order to maintain eligibility within the study. The Treatment Period consists of three monthly Experimental Sessions and associated Intervening Sessions of integrative behavioral psychotherapy. The Treatment Period lasts approximately 12 weeks. Following the Treatment Period is a Follow-up Period and Study Conclusion. During the Follow-up Period and Study Conclusion, participants complete 4 weeks with no study visits, followed by a Study Conclusion visit.
This study compares the effects of three blinded Experimental Sessions of psychotherapy in combination with flexible doses of MDE or placebo administered as described below. Non-drug preparatory and intervening psychotherapy sessions are also included. Patient's weight is determined for dosage calculation. Initial dose is 100 mg unless this will result in a dosage of less than 1.5 mg/kg of patient weight. Initial dose thereby adjusted upward in 25 mg increments to deliver the lowest dose possible of at least 1.5 mg/kg of patient weight. Initial dose for Experimental Session 2 and 3 is cumulative dose calculated by adding the initial dose plus REMS protocol dose used the previous Experimental Session for each patient.
Randomization occurs prior to the initiation of Experimental Session 1. Each participant is provided the next randomized number in a sequence by a blinded study monitor. Participants are then randomized, according to a computer-generated randomization schedule, 1:1:1:1 to racemic MDE, S-MDE, R-MDE, or placebo. […]

[2] = Dynamic vapor sorption (DVS) analysis with post-DVS XRPD; assay type: physicochemical
Experimental: DVS analysis was carried out using a TA Instruments Q5000 Dynamic Vapor Sorption analyzer. The instrument was calibrated with standard weights and a sodium bromide standard for humidity. Approximately 5-25 mg of sample was loaded into a metal-coated quartz pan for analysis. The sample was analyzed at 25° C. with a maximum equilibration time of one hour in 10% relative humidity (RH) steps from 5 to 95% RH (adsorption cycle) and from 95 to 5% RH (desorption cycle). The movement from one step to the next occurred either after satisfying the equilibrium criterion of 0.01% weight change or, if the equilibrium criterion was not met, after one hour. The percent weight change values were calculated using Microsoft Excel®.

[3] = highest dose, ip, 30 min before 5-min test

| SMILES | Frequency of stretched attend postures (SAP) (Male Sprague-Dawley rats; 2.5 mg/kg ip) | Frequency of stretched attend postures (SAP) (Male Sprague-Dawley rats; 5 mg/kg ip) | Frequency of stretched attend postures (SAP) (Male Sprague-Dawley rats; 10 mg/kg ip) | Frequency of stretched attend postures (SAP) (Male Sprague-Dawley rats; 15 mg/kg ip) | Frequency of stretched attend postures (SAP) (Male Sprague-Dawley rats; 30 mg/kg ip) | Percentage of time spent in the open arms (% TO), significance vs placebo (Male Sprague-Dawley rats) | Percentage of time spent in the open arms (% TO), trend (Male Sprague-Dawley rats) | Frequency of stretched attend postures (SAP) (Male Sprague-Dawley rats; [3]) | Daytime sleepiness (ESS) [1] | Clinician-rated functional impairment score (SDS) [1] | Depression (HAM-D) [1] | Change in CAPS-5 assessment [1] | Hygroscopicity by DVS ([2]; 25° C., 5 to 95% RH, listed as MBDB Maleate Form 1) | DVS weight gain ([2]; at 95% RH) | Post-DVS XRPD (form change) ([2]; solids after DVS analysis) | Total dosage of drug to achieve significant mean reduction in CAPS-5 [1] | Percentage of time spent in the open arms (% TO) (Male Sprague-Dawley rats; 15 mg/kg ip) | Frequency of stretched attend postures (SAP) (Male Sprague-Dawley rats; 20 mg/kg ip) | Frequency of stretched attend postures (SAP) (Male Sprague-Dawley rats; any dose vs placebo) | Adverse anxiogenic incidents ([1]; vs placebo-treated controls) |
| --- | --- | --- | --- | --- | --- | --- | --- | --- | --- | --- | --- | --- | --- | --- | --- | --- | --- | --- | --- | --- |
| CCNC(C)Cc1ccc2c(c1)OCO2 (racemic) [racemic MDE, N-ethyl-3,4-methylenedioxyamphetamine] | significant increase in SAPs | did not show any difference from placebo | dose dependent decrease in SAPs and a significant anxiolytic effect | dose dependent decrease in SAPs and a significant anxiolytic effect | dose dependent decrease in SAPs and a significant anxiolytic effect | did not show significant changes when compared to placebo | trended towards reduced time in the open arms | decreased the frequency of SAPs as effectively as the benzodiazepine chlordiazepoxide | significant improvement in lessening daytime sleepiness | significant improvement in clinician-rated functional impairment score | significant improvement depression | significant mean reduction in CAPS-5 assessment compared to the placebo group |  |  |  |  |  |  |  |  |
| CCC(Cc1ccc2c(c1)OCO2)NC.O=C(O)/C=C\C(=O)O (stereo not drawn) [MBDB maleate Form 1] |  |  |  |  |  |  |  |  |  |  |  |  | slightly hygroscopic | 0.6% | no form change |  |  |  |  |  |
| CCN[C@H](C)Cc1ccc2c(c1)OCO2 [R-MDE, (R)—N-ethyl-3,4-methylenedioxyamphetamine] | increase in the number of SAPs at the 2.5 mg/kg dose which trended towards significance | increase in SAPs at the 5 mg/kg dose range as well which trended toward significance | not significantly different from placebo | not significantly different from placebo | significant reduction in SAPs | did not show significant changes when compared to placebo | trended towards reduced time in the open arms | decreased the frequency of SAPs as effectively as the benzodiazepine chlordiazepoxide | significant improvement in lessening daytime sleepiness | significant improvement in clinician-rated functional impairment score | significant improvement depression | significant mean reduction in CAPS-5 assessment compared to the placebo group |  |  |  | lower total dosage of drug compared to the racemic MDE-treated subgroup |  |  |  |  |
| CCN[C@@H](C)Cc1ccc2c(c1)OCO2 [S-MDE, (S)—N-ethyl-3,4-methylenedioxyamphetamine] |  | significantly decreased the number of SAPs | significantly decreased the number of SAPs | significantly decreased the number of SAPs |  | did not show significant changes when compared to placebo |  | decreased the frequency of SAPs as effectively as the benzodiazepine chlordiazepoxide | significant improvement in lessening daytime sleepiness | significant improvement in clinician-rated functional impairment score | significant improvement depression | significant mean reduction in CAPS-5 assessment compared to the placebo group |  |  |  | lower total dosage of drug compared to the racemic MDE-treated subgroup | large numerical increase in time in the open arms | significantly decreased the number of SAPs | did not increase the number of SAPs beyond placebo at any dose | without a significant increase in adverse anxiogenic incidents |
